The values that follow come from patent publication US10081624B2, “Heterocyclic compound” (Takeda Pharmaceutical Company Limited, priority 2014, dated 2018).

SMILES strings stand for the structures.

The target in this experiment is T1, HDAC6 enzyme (Homo sapiens, UniProt Q9UBN7).
T1 construct: prepared by transducing full length HDAC1 and HDAC6 genes into Sf-9 insect cells; GST; purchased SignalChem; host or cells: Sf-9 insect cells
T1 sequence (Q9UBN7 1-1215): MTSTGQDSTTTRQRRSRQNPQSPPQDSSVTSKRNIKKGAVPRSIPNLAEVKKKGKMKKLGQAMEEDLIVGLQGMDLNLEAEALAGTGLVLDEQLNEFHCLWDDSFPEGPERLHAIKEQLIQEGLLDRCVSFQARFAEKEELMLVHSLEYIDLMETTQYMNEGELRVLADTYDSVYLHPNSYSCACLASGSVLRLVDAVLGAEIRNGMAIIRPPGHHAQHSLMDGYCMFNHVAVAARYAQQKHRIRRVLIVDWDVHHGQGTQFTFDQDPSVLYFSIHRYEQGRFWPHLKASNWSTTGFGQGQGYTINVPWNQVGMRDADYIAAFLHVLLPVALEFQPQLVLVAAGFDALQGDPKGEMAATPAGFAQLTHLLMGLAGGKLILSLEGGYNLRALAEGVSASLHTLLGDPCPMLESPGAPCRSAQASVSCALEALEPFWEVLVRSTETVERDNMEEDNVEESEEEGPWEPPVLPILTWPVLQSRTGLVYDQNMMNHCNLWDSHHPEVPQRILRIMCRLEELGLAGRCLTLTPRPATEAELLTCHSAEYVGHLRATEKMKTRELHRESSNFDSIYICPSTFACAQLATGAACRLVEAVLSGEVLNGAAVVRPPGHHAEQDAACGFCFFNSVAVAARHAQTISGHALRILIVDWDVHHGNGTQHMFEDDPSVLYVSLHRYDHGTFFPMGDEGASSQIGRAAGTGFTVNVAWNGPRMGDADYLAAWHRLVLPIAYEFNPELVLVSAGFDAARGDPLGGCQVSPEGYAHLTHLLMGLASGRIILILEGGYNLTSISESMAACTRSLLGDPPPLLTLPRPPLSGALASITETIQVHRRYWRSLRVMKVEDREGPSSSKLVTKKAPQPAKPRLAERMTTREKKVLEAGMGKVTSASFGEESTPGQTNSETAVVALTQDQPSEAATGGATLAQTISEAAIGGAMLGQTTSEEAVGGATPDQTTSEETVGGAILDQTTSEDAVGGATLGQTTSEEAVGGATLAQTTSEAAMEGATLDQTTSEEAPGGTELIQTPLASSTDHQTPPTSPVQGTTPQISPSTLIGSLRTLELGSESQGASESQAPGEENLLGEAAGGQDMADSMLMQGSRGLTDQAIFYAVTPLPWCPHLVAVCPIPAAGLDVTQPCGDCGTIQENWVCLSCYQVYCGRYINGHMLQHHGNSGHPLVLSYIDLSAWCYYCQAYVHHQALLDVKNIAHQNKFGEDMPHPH
In words: HDAC6 enzyme inhibitory assay (HDAC-Glo I/II Assay kit). It is filed as biochemical. As to conditions: 1 μM test compound; read-out: HDAC6 inhibitory rate (%) (1 μM). The method, then: HDAC1 enzyme and HDAC6 enzyme each prepared by transducing full length HDAC1 and HDAC6 genes into Sf-9 insect cells and purifying by GST affinity column were purchased from SignalChem. Using these enzymes, HDAC1 and/or HDAC6 enzyme inhibitory activities of the compound of the present invention were evaluated. Enzymes were used after preserved at −70° C. HDAC1 or HDAC6 enzyme inhibitory activity of the compound of the present invention was measured using HDAC-Glo™ I/II Assay kit (Promega) according to the following experimental method. The test compound diluted with assay buffer (24 mM Tris-HCl (pH 7.5), 1 mM MgCl2, 0.35 mM KCl, 135 mM NaCl, 0.6 mM Glutathione, 0.01% Tween-20) was added to a 384-well plate by each 2 μL. Then, HDAC1 or HDAC6 enzyme solution diluted with assay buffer was added thereto by each 4 μL, and the plate was incubated at room temperature for 60 min. After incubated, HDAC substrate-Developer solution prepared according to Promega protocol attached to the assay kit was added to the 384-well plate by each 2 μL, and the enzyme reaction was started. After reacting at room temperature for 20 min, luminescence level was measured using plate reader Envision (PerkinElmer). The inhibitory activity of each compound was calculated as a relative activity value when luminescence level in wells without enzyme is considered as 100% inhibition.
On to `O=C(NC[C@H]1COCCN1C(=O)C1CCCO1)c1ccc(-c2noc(C(F)(F)F)n2)cc1` (stereo partly drawn) [Example 78, N-(((3S)-4-(tetrahydrofuran-2-ylcarbonyl)morpholin-3-yl)methyl)-4-(5-(trifluoromethyl)-1,2,4-oxadiazol-3-yl)benzamide], for which the inhibition at 1 µM came to 88%.
Under `O=C(NC[C@H]1COCCN1C(=O)C1CCOC1)c1ccc(-c2noc(C(F)(F)F)n2)cc1` (stereo partly drawn) [Example 79, N-(((3S)-4-(tetrahydrofuran-3-ylcarbonyl)morpholin-3-yl)methyl)-4-(5-(trifluoromethyl)-1,2,4-oxadiazol-3-yl)benzamide] stands 94%; under `O=C(NC[C@H]1COCCN1C(=O)C1CCOCC1)c1ccc(-c2noc(C(F)(F)F)n2)cc1` [Example 81, N-(((3S)-4-(tetrahydro-2H-pyran-4-ylcarbonyl)morpholin-3-yl)methyl)-4-(5-(trifluoromethyl)-1,2,4-oxadiazol-3-yl)benzamide], 94%; under `Cc1cc(C(=O)N2CCOC[C@H]2CNC(=O)c2ccc(-c3noc(C(F)(F)F)n3)cc2)cc(O)n1` [Example 122, N-(((3R)-4-(2-hydroxy-6-methylisonicotinoyl)morpholin-3-yl)methyl)-4-(5-(trifluoromethyl)-1,2,4-oxadiazol-3-yl)benzamide], 36%.
As for `O=C(NC[C@@H]1COCCN1C(=O)c1ccc(OCC(F)(F)F)nc1)c1ccc(-c2noc(C(F)(F)F)n2)cc1` [Example 123, N-(((3R)-4-((6-(2,2,2-trifluoroethoxy)pyridin-3-yl)carbonyl)morpholin-3-yl)methyl)-4-(5-(trifluoromethyl)-1,2,4-oxadiazol-3-yl)benzamide], the figure is 95%; as for `O=C(NC[C@@H]1COCCN1C(=O)C1CCc2ccccc2O1)c1ccc(-c2noc(C(F)(F)F)n2)cc1` (stereo partly drawn) [Example 124, N-(((3R)-4-(3,4-dihydro-2H-chromen-2-ylcarbonyl)morpholin-3-yl)methyl)-4-(5-(trifluoromethyl)-1,2,4-oxadiazol-3-yl)benzamide], 90%; as for `O=C(NC[C@@H]1COCCN1C(=O)c1cc2ncccn2n1)c1ccc(-c2noc(C(F)(F)F)n2)cc1` [Example 126, N-(((3R)-4-(pyrazolo[1,5-a]pyrimidin-2-ylcarbonyl)morpholin-3-yl)methyl)-4-(5-(trifluoromethyl)-1,2,4-oxadiazol-3-yl)benzamide], 88%.
As for `N#CC1(C(=O)N2CCOC[C@H]2CNC(=O)c2ccc(-c3noc(C(F)(F)F)n3)cc2)CC1` [Example 127, N-(((3R)-4-((1-cyanocyclopropyl)carbonyl)morpholin-3-yl)methyl)-4-(5-(trifluoromethyl)-1,2,4-oxadiazol-3-yl)benzamide], the figure is 90%; as for `O=C(NC[C@@H]1COCCN1C(=O)C(c1ccccc1)c1ccccc1)c1ccc(-c2noc(C(F)(F)F)n2)cc1` [Example 129, N-(((3R)-4-(diphenylacetyl)morpholin-3-yl)methyl)-4-(5-(trifluoromethyl)-1,2,4-oxadiazol-3-yl)benzamide], 53%; as for `O=C(NC[C@@H]1COCCN1C(=O)COc1ccccc1)c1ccc(-c2noc(C(F)(F)F)n2)cc1` [Example 130, N-(((3R)-4-(phenoxyacetyl)morpholin-3-yl)methyl)-4-(5-(trifluoromethyl)-1,2,4-oxadiazol-3-yl)benzamide], 94%.
`Cc1oncc1C(=O)N1CCOC[C@H]1CNC(=O)c1ccc(-c2noc(C(F)(F)F)n2)cc1` [Example 131, N-(((3R)-4-((5-methyl-1,2-oxazol-4-yl)carbonyl)morpholin-3-yl)methyl)-4-(5-(trifluoromethyl)-1,2,4-oxadiazol-3-yl)benzamide]: the inhibition at 1 µM turned out to be 87%.
For `Cc1cc(C(=O)N2CCOC[C@H]2CNC(=O)c2ccc(-c3noc(C(F)(F)F)n3)cc2)n(C)n1` [Example 135, N-(((3R)-4-((1,3-dimethyl-1H-pyrazol-5-yl)carbonyl)morpholin-3-yl)methyl)-4-(5-(trifluoromethyl)-1,2,4-oxadiazol-3-yl)benzamide], the inhibition at 1 µM is 91%.
As to `Cn1nc(C(F)(F)F)cc1C(=O)N1CCOC[C@H]1CNC(=O)c1ccc(-c2noc(C(F)(F)F)n2)cc1` [Example 136, N-(((3R)-4-((1-methyl-3-(trifluoromethyl)-1H-pyrazol-5-yl)carbonyl)morpholin-3-yl)methyl)-4-(5-(trifluoromethyl)-1,2,4-oxadiazol-3-yl)benzamide], the inhibition at 1 µM is 92%.
For `Cn1ccc(C(=O)N2CCOC[C@H]2CNC(=O)c2ccc(-c3noc(C(F)(F)F)n3)cc2)n1` [Example 137, N-(((3R)-4-((1-methyl-1H-pyrazol-3-yl)carbonyl)morpholin-3-yl)methyl)-4-(5-(trifluoromethyl)-1,2,4-oxadiazol-3-yl)benzamide], the inhibition at 1 µM was 93%.
For the compound `Cn1cc(C(=O)N2CCOC[C@H]2CNC(=O)c2ccc(-c3noc(C(F)(F)F)n3)cc2)cn1` [Example 138, N-(((3R)-4-((1-methyl-1H-pyrazol-4-yl)carbonyl)morpholin-3-yl)methyl)-4-(5-(trifluoromethyl)-1,2,4-oxadiazol-3-yl)benzamide], the inhibition at 1 µM amounted to 85%.
For the compound `Cc1nn(C)c(C)c1C(=O)N1CCOC[C@H]1CNC(=O)c1ccc(-c2noc(C(F)(F)F)n2)cc1` [Example 139, 4-(5-(trifluoromethyl)-1,2,4-oxadiazol-3-yl)-N-(((3R)-4-((1,3,5-trimethyl-1H-pyrazol-4-yl)carbonyl)morpholin-3-yl)methyl)benzamide], the inhibition at 1 µM is 63%.
For the compound `Cc1nnsc1C(=O)N1CCOC[C@H]1CNC(=O)c1ccc(-c2noc(C(F)(F)F)n2)cc1` [Example 140, N-(((3R)-4-((4-methyl-1,2,3-thiadiazol-5-yl)carbonyl)morpholin-3-yl)methyl)-4-(5-(trifluoromethyl)-1,2,4-oxadiazol-3-yl)benzamide], the inhibition at 1 µM is 92%.
As for `Cc1ncsc1C(=O)N1CCOC[C@H]1CNC(=O)c1ccc(-c2noc(C(F)(F)F)n2)cc1` [Example 141, N-(((3R)-4-((4-methyl-1,3-thiazol-5-yl)carbonyl)morpholin-3-yl)methyl)-4-(5-(trifluoromethyl)-1,2,4-oxadiazol-3-yl)benzamide], the figure is 89%; as for `O=C(NC[C@@H]1COCCN1C(=O)c1cc[nH]n1)c1ccc(-c2noc(C(F)(F)F)n2)cc1` [Example 143, N-(((3R)-4-(1H-pyrazol-3-ylcarbonyl)morpholin-3-yl)methyl)-4-(5-(trifluoromethyl)-1,2,4-oxadiazol-3-yl)benzamide], 93%.
Under `Cc1ccsc1C(=O)N1CCOC[C@H]1CNC(=O)c1ccc(-c2noc(C(F)(F)F)n2)cc1` [Example 146, N-(((3R)-4-((3-methyl-2-thienyl)carbonyl)morpholin-3-yl)methyl)-4-(5-(trifluoromethyl)-1,2,4-oxadiazol-3-yl)benzamide] stands 94%.
Regarding `O=C(NC[C@@H]1COCCN1C(=O)C1CCCO1)c1ccc(-c2noc(C(F)(F)F)n2)cc1` (stereo partly drawn) [Example 150, N-(((3R)-4-(tetrahydrofuran-2-ylcarbonyl)morpholin-3-yl)methyl)-4-(5-(trifluoromethyl)-1,2,4-oxadiazol-3-yl)benzamide], the inhibition at 1 µM was determined as 90%.
